Where a name gives a salt, the structure may show the parent alone.
How the values were obtained:
[1] = test system: transient outward K+ current (Ito); assay: Transient outward K+ current recordings in isolated ventricular myocytes of treated dogs; format: in vivo, dog
Source text: (§1) After altogether 5 weeks of treatment the dogs were anaesthetized according to standard veterinary procedures and ex vivo ventricular myocytes were directly isolated from the mid-lateral left ventricular free wall using an isolation procedure described by Kubalova et al., which results in isolation of myocytes from the midmyocardial region. Afterwards the animals were humanely euthanized. Recordings of single cell action potentials and K+ currents were made. See Kubalova et al., Abnormal intrastore calcium signaling in chronic heart failure, Proc Nat Acad Sci 2005; 102: 14104-14109. There are two K+ currents which are expected to modulate the resting membrane potential and the action potential duration, and are known to be altered during heart failure, the inward and the outward K+ currents. The transient outward K+ current, (Ito) was recorded in all four groups and data was recorded and analyzed.

[2] = test system: inward rectifier K+ current (IK1); assay: Inward rectifier K+ current recordings in isolated ventricular myocytes of treated dogs; format: in vivo, dog
Source text: as §1, with “The inward rectifier K+ current (IK1) is the primary determinant of the resting membrane potential (inward current) and modulates the final phase of repolarization (outward current). Reductions in inward current result in depolarization of the resting potential, while reductions in” for “The transient”, “outward current can contribute to action potential duration prolongation. IK1” for “outward K+ current, (Ito)”, “in each of the” for “in all”, “four groups,” for “four groups and”, “analyzed. The peak outward K+ current was recorded in each of the four groups (FIG. 5 bottom), data was recorded and analyzed.” for “analyzed.”

[3] = test system: isolated ventricular myocytes; assay: Action potentials in ventricular myocytes isolated ex vivo after 5 weeks of treatment (perforated whole cell patch clamp); set-up: species or system dog; conditions: for APD50 compared to the placebo-treated heart failure group / APD90 compared to normal controls / heart failure induced prolongation of the APD90: 0.5 and 1 Hz
Source text: After altogether 5 weeks of treatment the dogs were anaesthetized according to standard veterinary procedures and ex vivo ventricular myocytes were directly isolated from the mid-lateral left ventricular free wall using an isolation procedure described by Kubalova et al., which results in isolation of myocytes from the midmyocardial region. Afterwards the animals were humanely euthanized. Recordings of single cell action potentials and K+ currents were made. See Kubalova et al., Abnormal intrastore calcium signaling in chronic heart failure, Proc Nat Acad Sci 2005; 102: 14104-14109. For measurement of the action potentials myocytes were placed in a laminin coated cell chamber and superfused with a bath solution. Only quiescent myocytes with sharp margins and clear striations were used for the electrophysiological study. Borosilicate glass micropipettes were filled with a pipette solution that was pH adjusted to 7.2. Perforated whole cell patch clamp was used to minimize alterations in the intracellular milieu. Action Potentials (APs) were recorded with the perforated whole cell patch techniques. Action potentials were recorded in isolated ventricular myocytes, which were characterized in the standard manner as the durations to 50% and 90% of repolarization. APs were measured as the average of the last 10 (steady-state) APs, obtained during a train of twenty five APs at each stimulation rate. An average of 2-3 myocytes was measured from each heart failure dog. Action Potentials were recorded in four groups. The following numbers of recordings were obtained and used in the analyzed data (number (n) indicates the number of myocytes): Control (CTRL, untreated, healthy dogs) (n=10) HF-placebo (placebo-treated dogs in heart failure (HF-PL)) (n=17) HF-C-Up bisoprolol, according to conservative up-titration bisoprolol treated dogs in heart failure (n=13) HF-A-Up bisoprolol, according to aggressive up-titration bisoprolol treated dogs in heart failure (n=15) Resting membrane potential was measured at 0.5 Hz and 1 Hz to bracket the physiologic range of resting heart rates (FIG. 1).

[4] = test system: dogs with pacing-induced heart failure; format: in vivo
Description: A study was conducted with two groups of conscious dogs with pacing-induced heart failure to determine the tolerance and potential effects of different doses of bisoprolol fumarate. […] ECG (PQ, QRS, RR, QT, QTcF, and QTcV intervals), echocardiography (left ventricular shortening fraction (LVSF) and systemic arterial blood pressure (SBP, DBP, MAP and pulse pressure) were monitored in the two groups. Heart failure was produced by rapid ventricular pacing to reduce left ventricular shortening fraction (LVSF) greater than 15% from baseline.
In the first group, the conservative up-titration study, the dogs were treated with weekly increasing oral doses of 0.005, 0.01, 0.03, 0.05 and 0.1 mg/kg bisoprolol fumarate. In the second group, the aggressive up-titration study, the dogs were treated with weekly increasing doses of 0.01, 0.05, 0.1, 0.5 and 1 mg/kg bisoprolol fumarate on top of a dose of 0.5 mg/kg of enalapril, 4 mg/kg of furosemide, and 0.003 mg/kg of digoxin. These two groups were compared to a placebo group that was treated with the same doses of the standard heart failure therapy (enalapril, furosemide and digoxin) alone.

[5] = aggressive up-titration (HF-A-Up)
[6] = conservative up-titration (HF-C-Up)

CC(C)NCC(O)COc1ccc(COCCOC(C)C)cc1 (stereo not drawn) [bisoprolol fumarate]
effects of heart failure on Ito ([1]; aggressive up-titration protocol (HF-A-Up Bis)): did not alter
heart failure induced reductions in Ito ([1]; conservative up-titration protocol (HF-C-Up Bis), at the two highest test potentials (+40 and +50 mV)): significantly attenuated
inward IK1 current conductance, difference between the groups ([2]; all four groups): no difference
peak outward IK1 current ([2]; conservative up-titration (HF-C-Up) relative to placebo (HF PL) and HF-A-Up): increased
APD50 compared to normal control myocytes [3, 5]: did not differ
APD50 compared to the placebo-treated heart failure group [3, 5]: statistically significant reduction
APD90 compared to normal controls [3, 5]: did not differ
heart failure induced prolongation of the APD90 [3, 5]: significantly attenuated
APD50 compared to normal control myocytes [3, 6]: did not differ
APD50 compared to the placebo-treated heart failure group [3, 6]: statistically significant reduction
APD90 compared to normal controls [3, 6]: did not differ
heart failure induced prolongation of the APD90 [3, 6]: significantly attenuated
HF-induced changes in the action potential durations (particularly APD90 prolongation) ([3]; summary, both conservative and aggressive up-titration dosing regimens, physiologically relevant heart rates): significantly attenuated and even reversed to the physiological normal
tolerance ([4]; dog, in vivo, po): well tolerated
cardioselective β-blockade effect (prolongation of PQ interval and reduction of heart rate) ([4]; doses used in both up-titration groups, dogs with heart failure): near to maximum cardioselective β-blockade effect

Source: patent US20100305213A1, “TREATMENT OF HEART DISEASE USING BETA-BLOCKERS” (Bayer Animal Health GmbH, priority 2007, published 2010)
